Where two headings read alike, the source gives them in different places.
Key:
[1] = tested on: P. carotovorum (NBRC/ATCC #3380); experiment: Antibacterial resazurin assay, laboratory strain; conditions: for EC90: read-out: Pcar EC90; for Selectivity index P. carotovorum: mean of MCF-7 and HepG2 EC50 over bacterial EC50, laboratory strain
[2] = Cytotoxicity assay (PrestoBlue) MCF-7; type: cell-based; conditions: human, MCF-7 cells (breast cancer cell line), 24 h incubation
Method: The cytotoxicity levels of all compounds were evaluated against human Michigan Cancer Foundation-7 (MCF-7) and Hepatoma G2 cell line (HepG2) cell lines. MCF-7 is an extensively characterized breast cancer cell line isolated in 1970 [41], while HepG2 cells were derived from a hepatoma in 1975 [42]. Both cell lines grow robustly during in vitro culture and have been widely used for cytotoxicity testing. Cells of hepatic origin, such as HepG2, are of particular relevance for toxicity studies as many drugs accumulate in the liver during metabolic conversion. Cells were grown in Dulbecco’s Modified Eagle Medium supplemented with 10% fetal calf serum and kept in exponential growth, as previously reported. Before the assay, cells were reseeded into 96-well microtiter plates at a density allowing continued exponential growth and let to settle for 24 h. The compounds were added from a stock solution in DMSO, for a final concentration of 0.3% v/v of the solvent in the culture medium. After 24 h of incubation in presence of the compound, cell viability was assayed using PrestoBlue Cell Viability Reagent (resazurin-based solution, ThermoFisher, Waltham, MA, USA) according to the manufacturer’s instructions. […] Each assay contained a DMSO control at the equivalent starting concentration, positive control (uninhibited cell growth) and negative control (cell medium only). Survival was expressed as percentage of the solvent-only control. […] The Selectivity Index (SI) for each compound and bacterial strain was calculated as the ratio between the mean of the EC50 values for the two human cell lines and the EC50 for the bacterial strain in question ((EC50 MCF-7 + EC50 HepG2)/2)/EC50 bacterial strain).

[3] = tested on: A. baumannii (CCUG #57035); experiment: Antibacterial activity against isolates (Omnilog, Biolog redox dye); type: cell-based, Acinetobacter baumannii; conditions: for EC50 / EC90: Acinetobacter baumannii, CCUG57035, ca-MH broth, 24 h, 37 °C; for Selectivity index A. baumannii (CCUG #57035): SI = ((EC50 MCF-7 + EC50 HepG2)/2)/EC50 bacterial strain
Method: (§1) The antibacterial activities of eight compounds (1, 3, 4, 6, 8, 10, 16, and 17) were tested against 10 different isolates of Gram-negative bacteria from human and other sources, two E. coli (CCUG #67180 and CCUG #17620/ATCC #25922, control strain), two K. pneumoniae (CCUG #58547 and CCUG #225T), two P. aeruginosa (CCUG #17619 and CCUG #59347), two A. baumannii (CCUG #57035 and CCUG #57250), E. cloacae (CCUG #6323T), and E. hormaechei (CCUG #58962) in a 96-well plate format. […] Bacterial mass from the ten isolates grown overnight on horse blood or Mueller–Hinton agar plates was suspended in ca-MH and adjusted to a final inoculum cell density of ~5 × 10^5 CFU/mL. For all assays, Biolog redox dye A diluted 100× from the stock solution was used for measurements of all ten isolates (up to a total volume of 120 µL per well). All plates included one well per isolate with only inoculum and dye but no test compound (i.e., positive control) and one well per isolate with inoculum, dye and DMSO diluted 1667×, corresponding to the DMSO concentration in the wells with the highest concentration of test compound. All measurements were performed using the Omnilog microplate reader (Biolog, Hayward, CA, USA) where the 96-well plates were read at 15 min intervals for a total of 24 h at 37 °C.

E. coli (CCUG #67180) = experiment: as above; type: cell-based, Escherichia coli; conditions: for EC90 / EC50: Escherichia coli, ca-MH broth, 24 h, 37 °C; for EC90: CCUG67180, 24 h; for EC50: CCUG67180; for Selectivity index E. coli (CCUG #67180): SI = ((EC50 MCF-7 + EC50 HepG2)/2)/EC50 bacterial strain
Method: (§2) The antibacterial activities of eight compounds (1, 3, 4, 6, 8, 10, 16, and 17) were tested against 10 different isolates of Gram-negative bacteria from human and other sources, two E. coli (CCUG #67180 and CCUG #17620/ATCC #25922, control strain), two K. pneumoniae (CCUG #58547 and CCUG #225T), two P. aeruginosa (CCUG #17619 and CCUG #59347), two A. baumannii (CCUG #57035 and CCUG #57250), E. cloacae (CCUG #6323T), and E. hormaechei (CCUG #58962) in a 96-well plate format. The compounds to test were 3-fold diluted in six steps in cation-adjusted Mueller-Hinton (ca-MH) broth to final concentrations spanning from 30 to 0.12 µM, i.e., a 1667–416,667 times dilution from the 50 mM stocks. Bacterial mass from the ten isolates grown overnight on horse blood or Mueller–Hinton agar plates was suspended in ca-MH and adjusted to a final inoculum cell density of ~5 × 10^5 CFU/mL. For all assays, Biolog redox dye A diluted 100× from the stock solution was used for measurements of all ten isolates (up to a total volume of 120 µL per well). All plates included one well per isolate with only inoculum and dye but no test compound (i.e., positive control) and one well per isolate with inoculum, dye and DMSO diluted 1667×, corresponding to the DMSO concentration in the wells with the highest concentration of test compound. All measurements were performed using the Omnilog microplate reader (Biolog, Hayward, CA, USA) where the 96-well plates were read at 15 min intervals for a total of 24 h at 37 °C.

[4] = tested on: E. coli (CCUG #17620/ ATCC #25922); experiment: as above; type: cell-based, Escherichia coli; conditions: for EC50 / EC90: Escherichia coli, ca-MH broth, 24 h, 37 °C; for Selectivity index E. coli (CCUG #17620/ ATCC #25922): SI = ((EC50 MCF-7 + EC50 HepG2)/2)/EC50 bacterial strain
Method: as §2

[5] = tested on: B. subtilis (NBRC/ATCC #111470); experiment: Antibacterial resazurin assay, laboratory strain; conditions: for EC50 / EC90: Bacillus subtilis, ATCC111470, 18 h; for EC50: read-out: Bsu EC50; for EC90: read-out: Bsu EC90; for Selectivity index B. subtilis: mean of MCF-7 and HepG2 EC50 over bacterial EC50, laboratory strain
[6] = tested on: P. aeruginosa (CCUG #59347); experiment: Antibacterial activity against isolates (Omnilog, Biolog redox dye); type: cell-based, Pseudomonas aeruginosa; conditions: for EC50 / EC90: Pseudomonas aeruginosa, CCUG59347, ca-MH broth, 24 h, 37 °C; for Selectivity index P. aeruginosa (CCUG #59347): SI = ((EC50 MCF-7 + EC50 HepG2)/2)/EC50 bacterial strain
Method: as §1

E. cloacae (CCUG #6323T) = experiment: as above; type: cell-based, Enterobacter cloacae; conditions: for EC50 / EC90: Enterobacter cloacae, ca-MH broth, 24 h, 37 °C; for Selectivity index E. cloacae (CCUG #6323T): SI = ((EC50 MCF-7 + EC50 HepG2)/2)/EC50 bacterial strain
Method: as §2

[7] = tested on: P. aeruginosa (CCUG #17619); experiment: as above; type: cell-based, Pseudomonas aeruginosa; conditions: for EC50 / EC90: Pseudomonas aeruginosa, CCUG17619, ca-MH broth, 24 h, 37 °C; for Selectivity index P. aeruginosa (CCUG #17619): SI = ((EC50 MCF-7 + EC50 HepG2)/2)/EC50 bacterial strain
Method: as §2

[8] = Pectobacterium carotovorum, ATCC3380, 18 h, read-out: Pcar EC50, laboratory strain, 18 h, 37 °C, AlamarBlue
[9] = Pectobacterium carotovorum, ATCC3380, 18 h
[10] = read-out: Pcar EC50, laboratory strain, 18 h, 37 °C, AlamarBlue

Row | Compound | EC50 [1, 8] [µM] | EC90 [1, 9] [µM] | Selectivity index P. carotovorum [1] | EC50 at 24 h [2] [µM] | EC50 [3] [µM] | EC90 [3] [µM] | EC50 (E. coli (CCUG #67180)) [µM] | Selectivity index E. coli (CCUG #67180) (E. coli (CCUG #67180)) | EC50 [4] [µM] | EC90 [4] [µM] | Selectivity index E. coli (CCUG #17620/ ATCC #25922) [4] | EC50 [5] [µM] | EC90 [5] [µM] | EC50 [6] [µM] | EC90 [6] [µM] | Selectivity index P. aeruginosa (CCUG #59347) [6] | EC50 (E. cloacae (CCUG #6323T)) [µM] | EC90 (E. cloacae (CCUG #6323T)) [µM] | Selectivity index E. cloacae (CCUG #6323T) (E. cloacae (CCUG #6323T)) | EC50 [7] [µM] | also measured
1 | N=C(N)Nc1ccc(-c2ccc(-c3ccc(NC(=N)N)cc3Cl)o2)c(Cl)c1 [Compound 1, 2,5-Bis(2-chloro-4-guanidinophenyl)furan] | 67.1 | 115 | 0.6 | 34.4 | 4.7 | 6.3 | 3.2 | 12.2 | 3.9 | 6.3 | 9.9 | 25.4 | 136 | 5.3 | 7.4 | 7.3 | 1 | 1.2 | 37.2 | 4.8 | Selectivity index A. baumannii (CCUG #57035) [3]: 8.3; EC90 (E. coli (CCUG #67180)): 3.8 µM; Selectivity index B. subtilis [5]: 1.5; EC90 [7]: 6.7 µM; Selectivity index P. aeruginosa (CCUG #17619) [7]: 8.1
2 | N=C(N)Nc1ccc(-c2ccc(-c3ccc(NC(=N)N)cc3)o2)cc1 [Compound 3] | 34.6 | 79 | 3.6 | 64.5 | 1.6 | 2.4 | 5.3 | 23.7 | 1.6 | 2.2 | 76.6 | 11.2 | 22.5 | 5.2 | 8.1 | 24.1 | 1.5 | 2.5 | 83.1 | 9 | Selectivity index B. subtilis [5]: 11.1; EC90 [7]: 11.1 µM; Selectivity index P. aeruginosa (CCUG #17619) [7]: 13.8
3 | Cc1cc(NC(=N)N)ccc1-c1ccc(-c2ccc(NC(=N)N)cc2C)o1 [Compound 4, 2,5-Bis(4-guanidino-2-methylphenyl)furan] | ~28.5 | 37.3 | 2.6 | > 100 | 16 | 23.5 | 23.1 | 3.3 | 11.3 | 18.3 | 6.7 | 6.2 | 8.5 | 66.8 | 77 | 1.1 | 3.7 | 7.4 | 20.7 | 17.9 | EC50 [1, 10]: 28.6 µM; Selectivity index A. baumannii (CCUG #57035) [3]: 4.7; EC90 (E. coli (CCUG #67180)): 25.3 µM; Selectivity index B. subtilis [5]: 12.2; EC90 [7]: 25.4 µM; Selectivity index P. aeruginosa (CCUG #17619) [7]: 4.2
4 | COc1cc(NC(=N)N)ccc1-c1ccc(-c2ccc(NC(=N)N)cc2OC)o1 [Compound 6, 2,5-Bis(4-guanidino-2-methoxyphenyl)furan] | ~28.5 | 45 | 5.1 | 74.7 | 6.8 | 11 | 63.4 | 2.3 | 6.2 | 7.5 | 23.1 | > 300 | > 300 | 54.8 | 65.3 | 2.6 | 5.3 | 8.4 | 27.4 | 24.6 | EC50 [1, 10]: 28.4 µM; Selectivity index A. baumannii (CCUG #57035) [3]: 21.3; EC90 (E. coli (CCUG #67180)): 74.4 µM; EC90 [7]: 28.7 µM; Selectivity index P. aeruginosa (CCUG #17619) [7]: 5.9
